≈ marks a conversion by molar mass, not a printed value.
How the values were obtained:
Assay in all cases: Agar dilution MIC in DST agar (Ericsson and Sherris)
Format in all cases: cell-based
Escherichia coli 2018 = details: for MIC: Escherichia coli, 2018, in vitro, read-out: MIC Esch. 2018; for MIC Esch. 2018: in vitro
From the text: (§1) Die antibiotische Aktivität der Testverbindungen in vitro wurde durch die Agarverdünnungsmethode nach Ericsson, H.M., und Sherris, S.C., 1971, Acta Path. Microb. Scand. Section B, Suppl. No. 217, Bd. 1-90, in DST Agara ermittelt. Die gefundenen, das Wachstum der Testorganismen noch hemmenden Minimalkonzentrationen (MIC = minimum inhibiting concentrations) werden in Mikrogramm pro Milliliter (µg/ml) für die geprüften Verbindungen in der Tabelle 1 angegeben.

[1] = test system: Staphylococcus aureus 2999; details: for MIC: Staphylococcus aureus, 2999, in vitro, read-out: MIC Staph. 2999; for MIC Staph. 2999: in vitro
From the text: as §1

Escherichia coli 205 = details: for MIC: Escherichia coli, 205, in vitro, read-out: MIC Esch. 205; for MIC Esch. 205: in vitro
From the text: as §1

[2] = test system: Staphylococcus aureus 10B; details: in vitro; for MIC: Staphylococcus aureus, 10B, read-out: MIC Staph. 10B
From the text: as §1

[3] = test system: Salmonella Typhimurium 277; details: in vitro; for MIC: Salmonella enterica, TYPHIMURIUM, read-out: MIC Salm. 277
From the text: as §1

Proteus morganii 2359 = details: for MIC: Morganella morganii, 2359, in vitro, read-out: MIC Prot. 2359; for MIC Prot. 2359: in vitro
From the text: as §1

[4] = test system: Pseudomonas aeruginosa K 799/61; details: for MIC: Pseudomonas aeruginosa, K799/61, read-out: MIC Pseu. 799; for MIC Pseu. 799: in vitro, agar dilution, DST agar
From the text: as §1

Proteus morganii 1518 = details: for MIC: Morganella morganii, 1518, in vitro, read-out: MIC Prot. 1518; for MIC Prot. 1518: in vitro
From the text: as §1

| Compound | MIC (Escherichia coli 2018) | MIC [1] | MIC (Escherichia coli 205) | MIC [2] | MIC [3] | MIC (Proteus morganii 2359) | MIC [4] | MIC (Proteus morganii 1518) | MIC Esch. 2018 (Escherichia coli 2018) | MIC Staph. 2999 [1] | MIC Esch. 205 (Escherichia coli 205) | MIC Staph. 10B [2] | MIC Salm. 277 [3] | MIC Prot. 2359 (Proteus morganii 2359) | MIC Pseu. 799 [4] | MIC Prot. 1518 (Proteus morganii 1518) |
| --- | --- | --- | --- | --- | --- | --- | --- | --- | --- | --- | --- | --- | --- | --- | --- | --- |
| CO[C@H]1/C=C/O[C@@]2(C)Oc3c(C)c(O)c4c(O)c(c5[nH]c(N(C)C6CCN(C)CC6)nc5c4c3C2=O)NC(=O)/C(C)=C\C=C\[C@H](C)[C@H](O)[C@@H](C)[C@@H](O)[C@@H](C)[C@H](OC(C)=O)[C@@H]1C [Verbindung 13] | 8 mg/L (≈ 9.43 µM) | 0.05 mg/L (≈ 0.059 µM) | 8 mg/L (≈ 9.43 µM) | 0.05 mg/L (≈ 0.059 µM) | 32 mg/L (≈ 37.7 µM) | 16 mg/L (≈ 18.9 µM) | 8 mg/L (≈ 9.43 µM) | 16 mg/L (≈ 18.9 µM) | – | – | – | – | – | – | – | – |
| 4-[4-(2-Tetrahydrofurylmethyl)-piperazinyl]-imidazolo-[4,5-c]rifamycin SV [Verbindung 61] | – | – | – | – | – | – | – | – | 4 mg/L | 0.005 mg/L | 16 mg/L | 0.005 mg/L | 32 mg/L | 4 mg/L | 32 mg/L | 4 mg/L |
| CCOC(=O)C1CCN(c2nc3c([nH]2)c2c(O)c4c(O)c(C)c5c(c43)C(=O)[C@@](C)(O/C=C/[C@H](OC)[C@@H](C)[C@@H](OC(C)=O)[C@H](C)[C@H](O)[C@H](C)[C@@H](O)[C@@H](C)/C=C/C=C(/C)C(=O)N2)O5)CC1 [Verbindung 22, 4-(4-Ethoxycarbonyl-1-piperidyl)-imidazolo[4,5-c]rifamycin SV] | 8 mg/L (≈ 9.12 µM) | 0.005 mg/L (≈ 0.0057 µM) | 16 mg/L (≈ 18.2 µM) | 0.005 mg/L (≈ 0.0057 µM) | 32 mg/L (≈ 36.5 µM) | 4 mg/L (≈ 4.56 µM) | 16 mg/L (≈ 18.2 µM) | 4 mg/L (≈ 4.56 µM) | – | – | – | – | – | – | – | – |
| 4-[4-(2,2-Dimethoxyethyl)-piperazinyl]-imidazolo- [4,5-c]rifamycin SV [Verbindung 65] | – | – | – | – | – | – | – | – | 32 mg/L | 0.01 mg/L | 32 mg/L | 0.05 mg/L | 128 mg/L | 32 mg/L | 32 mg/L | 32 mg/L |
| CCN(CCO)c1nc2c([nH]1)c1c(O)c3c(O)c(C)c4c(c32)C(=O)[C@@](C)(O/C=C/[C@H](OC)[C@@H](C)[C@@H](OC(C)=O)[C@H](C)[C@H](O)[C@H](C)[C@@H](O)[C@@H](C)/C=C/C=C(/C)C(=O)N1)O4 [Verbindung 14, 4-[N-Ethyl-N-(2-hydroxyethyl)-amino]-imidazolo[4,5-c]rifamycin SV] | 16 mg/L (≈ 19.8 µM) | 0.01 mg/L (≈ 0.0124 µM) | 8 mg/L (≈ 9.89 µM) | 0.05 mg/L (≈ 0.0618 µM) | 32 mg/L (≈ 39.6 µM) | 16 mg/L (≈ 19.8 µM) | 16 mg/L (≈ 19.8 µM) | 16 mg/L (≈ 19.8 µM) | – | – | – | – | – | – | – | – |
| CCC(C)CN1CCN(c2nc3c([nH]2)c2c(O)c4c(O)c(C)c5c(c43)C(=O)[C@@](C)(O/C=C/[C@H](OC)[C@@H](C)[C@@H](OC(C)=O)[C@H](C)[C@H](O)[C@H](C)[C@@H](O)[C@@H](C)/C=C/C=C(/C)C(=O)N2)O5)CC1 (stereo partly drawn) [Verbindung 38, 4-[4-(2-Methyl-butyl)piperazinyl]-imidazolo[4,5-c]rifamycin SV] | 2 mg/L (≈ 2.28 µM) | 0.005 mg/L (≈ 0.00571 µM) | 4 mg/L (≈ 4.57 µM) | 0.005 mg/L (≈ 0.00571 µM) | 16 mg/L (≈ 18.3 µM) | 2 mg/L (≈ 2.28 µM) | 16 mg/L (≈ 18.3 µM) | 4 mg/L (≈ 4.57 µM) | – | – | – | – | – | – | – | – |
| 4-{4-[2-(1,3- Dioxolan-2-yl)-ethyl]-piperazinyl}-imidazolo-[4,5-c]rifamycin SV [Verbindung 62] | – | – | – | – | – | – | – | – | 32 mg/L | 0.02 mg/L | 32 mg/L | 0.02 mg/L | 128 mg/L | 8 mg/L | 32 mg/L | 8 mg/L |
| CC=C(CC)CN1CCN(c2nc3c([nH]2)c2c(O)c4c(O)c(C)c5c(c43)C(=O)[C@@](C)(O/C=C/[C@H](OC)[C@@H](C)[C@@H](OC(C)=O)[C@H](C)[C@H](O)[C@H](C)[C@@H](O)[C@@H](C)/C=C/C=C(/C)C(=O)N2)O5)CC1 [Verbindung 47, 4-[4-(2-Ethyl-2-butenyl)-piperazinyl]-imidazolo[4,5-c]-rifamycin SV] | 4 mg/L (≈ 4.5 µM) | 0.005 mg/L (≈ 0.00563 µM) | 8 mg/L (≈ 9.01 µM) | 0.005 mg/L (≈ 0.00563 µM) | 16 mg/L (≈ 18 µM) | 4 mg/L (≈ 4.5 µM) | 32 mg/L (≈ 36 µM) | 4 mg/L (≈ 4.5 µM) | – | – | – | – | – | – | – | – |
| 4-(4-Methoxycarbonylmethylpiperazinyl)-imidazolo[4,5-c]-rifamycin SV [Verbindung 71] | – | – | – | – | – | – | – | – | 32 mg/L | 0.02 mg/L | 32 mg/L | 0.02 mg/L | 128 mg/L | 32 mg/L | 128 mg/L | 32 mg/L |
| 4-(4-Isobutyrylpiperazinyl)-imidazolo[4,5-c]rifamycin SV [Verbindung 70] | – | – | – | – | – | – | – | – | 32 mg/L | 0.02 mg/L | 32 mg/L | 0.02 mg/L | 128 mg/L | 32 mg/L | 128 mg/L | 32 mg/L |
| CCN1CCN(c2nc3c4c(O)c5c(O)c(C)c6c(c5c3[nH]2)C(=O)[C@@](C)(O/C=C/[C@H](OC)[C@@H](C)[C@@H](OC(C)=O)[C@H](C)[C@H](O)[C@H](C)[C@@H](O)[C@@H](C)/C=C/C=C(/C)C(=O)N4)O6)CC1 [Verbindung 31, 4-(4-Ethylpiperazinyl)-imidazolo[4,5-c]rifamycin SV] | – | – | – | – | – | – | – | – | 8 mg/L (≈ 9.59 µM) | 0.001 mg/L (≈ 0.0012 µM) | 8 mg/L (≈ 9.59 µM) | 0.002 mg/L (≈ 0.0024 µM) | 32 mg/L (≈ 38.4 µM) | 8 mg/L (≈ 9.59 µM) | 8 mg/L (≈ 9.59 µM) | 8 mg/L (≈ 9.59 µM) |
| 4-[4-(l,3-Dimethylpropyl)-piperazinyl]-imidazolo[4,5-c]-rifamycin SV [Verbindung 43] | – | – | – | – | – | – | – | – | 4 mg/L | 0.005 mg/L | 8 mg/L | 0.01 mg/L | 32 mg/L | 8 mg/L | 16 mg/L | 8 mg/L |
| C#CCN1CCN(c2nc3c([nH]2)c2c(O)c4c(O)c(C)c5c(c43)C(=O)[C@@](C)(O/C=C/[C@H](OC)[C@@H](C)[C@@H](OC(C)=O)[C@H](C)[C@H](O)[C@H](C)[C@@H](O)[C@@H](C)/C=C/C=C(/C)C(=O)N2)O5)CC1 [Verbindung 49, 4-(4-Propargylpiperazinyl)-imidazolo[4,5-c]rifamycin SV] | 32 mg/L (≈ 37.9 µM) | 0.001 mg/L (≈ 0.00118 µM) | 8 mg/L (≈ 9.48 µM) | 0.001 mg/L (≈ 0.00118 µM) | 32 mg/L (≈ 37.9 µM) | 8 mg/L (≈ 9.48 µM) | 8 mg/L (≈ 9.48 µM) | 8 mg/L (≈ 9.48 µM) | – | – | – | – | – | – | – | – |
| CO[C@H]1/C=C/O[C@@]2(C)Oc3c(C)c(O)c4c(O)c(c5nc(N6CCN(CC7CCCC7)CC6)[nH]c5c4c3C2=O)NC(=O)/C(C)=C\C=C\[C@H](C)[C@H](O)[C@@H](C)[C@@H](O)[C@@H](C)[C@H](OC(C)=O)[C@@H]1C [Verbindung 55, 4-(4-Cyclopentylmethylpiperazinyl)-imidazolo[4,5-c]-rifamycin SV] | 1 mg/L (≈ 1.13 µM) | 0.001 mg/L (≈ 0.00113 µM) | 8 mg/L (≈ 9.01 µM) | 0.01 mg/L (≈ 0.0113 µM) | 32 mg/L (≈ 36 µM) | 2 mg/L (≈ 2.25 µM) | 32 mg/L (≈ 36 µM) | 2 mg/L (≈ 2.25 µM) | – | – | – | – | – | – | – | – |
| 4-(4-Propyliperazinyl)-imidazolo[4,5-c]rifamycin SV [Verbindung 32] | – | – | – | – | – | – | – | – | 8 mg/L | 0.001 mg/L | 8 mg/L | 0.001 mg/L | 32 mg/L | 8 mg/L | 8 mg/L | 8 mg/L |
| 4-[4-(2,2-Diethoxyethyl)-piperazinyl]-imidazolo[4,5-c]-rifamycin SV [Verbindung 66] | – | – | – | – | – | – | – | – | 16 mg/L | 0.01 mg/L | 16 mg/L | 0.01 mg/L | 128 mg/L | 16 mg/L | 32 mg/L | 16 mg/L |
| COC1C=COC2(C)Oc3c(C)c(O)c4c(O)c(c5nc(N(C)C6CCCC6)[nH]c5c4c3C2=O)NC(=O)C(C)=CC=CC(C)C(O)C(C)C(O)C(C)C(OC(C)=O)C1C (stereo not drawn) [Verbindung 10, 4-(N-Cyclopentyl-N-methylamino)-imidazolo[4,5-c]rifamycin SV] | 4 mg/L (≈ 4.88 µM) | 0.005 mg/L (≈ 0.00611 µM) | 4 mg/L (≈ 4.88 µM) | 0.005 mg/L (≈ 0.00611 µM) | 16 mg/L (≈ 19.5 µM) | 4 mg/L (≈ 4.88 µM) | 8 mg/L (≈ 9.77 µM) | 4 mg/L (≈ 4.88 µM) | – | – | – | – | – | – | – | – |
| COC(CN(C)c1nc2c([nH]1)c1c(O)c3c(O)c(C)c4c(c32)C(=O)[C@@](C)(O/C=C/[C@H](OC)[C@@H](C)[C@@H](OC(C)=O)[C@H](C)[C@H](O)[C@H](C)[C@@H](O)[C@@H](C)/C=C/C=C(/C)C(=O)N1)O4)OC [Verbindung 15, 4-[N-(2,2-Dimethoxyethyl)-N-methylamino]-imidazolo[4,5-c]-rifamycin SV] | 8 mg/L (≈ 9.54 µM) | 0.005 mg/L (≈ 0.00596 µM) | 8 mg/L (≈ 9.54 µM) | 0.005 mg/L (≈ 0.00596 µM) | 32 mg/L (≈ 38.1 µM) | 4 mg/L (≈ 4.77 µM) | 16 mg/L (≈ 19.1 µM) | 8 mg/L (≈ 9.54 µM) | – | – | – | – | – | – | – | – |

Reference: EP0049683A2, “Imidazo-rifamycines, process for their preparation, pharmaceutical preparations containing them and their use” (CIBA-GEIGY AG, priority 1980, dated 1982)
